Reference: patent US6548688B1, “Diammonium ruthenium diethylenethriaminepentaacetate or hydrates thereof and process for the preparation of both” (Chubu Chelest Co., Ltd., priority 1999, dated 2003)
Entries after “also recorded” stand apart in the source; their conditions may differ. Where two headings read alike, the source gives them in different places.

Assays:
Format in all cases: physicochemical
solubility to water = details: 25° C.
[1] = pH of 5% aqueous solution
[2] = stability in the atmospheric condition and in aqueous solution

O=C([O-])CN(CCN1CCN2CC(=O)[O][Ru]([O]C(=O)C1)[O]C(=O)C2)CC(=O)[O-] [diammonium ruthenium diethylenetriaminepentaacetate]
solubility to water (solubility to water): 53 mass % | solubility (solubility to water; crystals of Example 1): 53% | pH of 5% aqueous solution [1]: 5.1 | pH of 5% aqueous solution ([1]; listed as DTPA.Ru(III).(NH4)2.2H2O): 5.10 | precipitation in aqueous solution on change of pH ([2]; acid or alkali added into the aqueous solution to change pH): does not precipitate; also recorded: without precipitating | storage stability (decomposition or transformation) ([2]; in the atmospheric condition and in the aqueous solution): can be stably preserved; also recorded: not decomposed
